Data on 27 compounds can be found in patent US10501467B2, “Fused tetra or penta-cyclic dihydrodiazepinocarbazolones as PARP inhibitors” (BeiGene, Ltd., priority 2011, dated 2019).

One assay deals with PARP PARylation in HeLa cells. Briefly: PARylation assay in HeLa cells. Format: cell-based. The note with it: H2O2-provoked DNA damage.
In turn, “2-phenyl-2,3,5,10- tetrahydro- [1,2]diazepino[3,4, 5,6-def]carbazol- 6(1H)-one [Compound 5]” showed a 50% effective concentration (EC50) of 10.1 nM.
In turn, `CN(C)c1ccc(C2CC3=NNC(=O)c4cc(F)cc5[nH]c(c3c45)C2)cc1` (stereo not drawn) [Compound 12, 2-(4-(dimethylamino)phe-nyl)-8-fluoro-2,3,5,10-tetrahydro-[1,2]diazepino[3,4,5,6-def]carbazol-6(1H)-one] displayed a 50% effective concentration (EC50) of 26.6 nM.

Still in this assay, the particulars now being: Homo sapiens, H2O2-provoked DNA damage.
In turn, `CC1CC2=NNC(=O)c3cccc4[nH]c(c2c34)C1` (stereo not drawn) [Compound 3, 2-methyl-2,3,5,10-tetrahydro-[1,2]diazepino[3,4,5,6-def]carbazol-6(1H)-one] gave a half-maximal effective concentration (EC50) of 4.6 nM.
As for `CC1(C)CCc2[nH]c3cccc4c3c2C1=NNC4=O` [Compound 4, 3,3-dimethyl-2,3,5,10-tetrahydro-[1,2]diazepino[3,4,5,6-def]carbazol-6(1H)-one], a half-maximal response (EC50) required 46.7 nM.
As to `CC(C)C1CC2=NNC(=O)c3cccc4[nH]c(c2c34)C1` (stereo not drawn) [Compound 6, 2-isopropyl-2,3,5,10-tetrahydro-[1,2]diazepino[3,4,5,6-def]carbazol-6(1H)-one], the concentration for a half-maximal effect (EC50) is 3.9 nM.
`CN(C)c1ccc(C2CC3=NNC(=O)c4cccc5[nH]c(c3c45)C2)cc1` (stereo not drawn) [Compound 13, 2-(4-(dimethylamino)phe-nyl)-2,3,5,10-tetrahydro-[1,2]diazepino[3,4,5,6-def]carbazol-6(1H)-one] returned an EC50 of 77.6 nM.
In turn, `O=C1NN=C2CN(C(=O)OCc3ccccc3)Cc3[nH]c4cccc1c4c32` [Compound 20, Benzyl 8-oxo-3,4,8,9-tetrahydro-2,4,9,10-tetraazacyclohepta[def]fluorene-2(1H)-carboxylate] gave an EC50 of 7.3 nM.
Same read-out and setting: the figure for `O=C1NN=C2CN(C(=O)OCc3ccccc3)Cc3[nH]c4cc(F)cc1c4c32` [Compound 21, Benzyl 6-fluoro-8-oxo-3,4,8,9-tetrahydro-2,4,9,10-tetraazacyclohepta[def]fluorene-2(1H)-carboxylate] is 14 nM.
With `CN1N=C2CC(C)(C)Cc3c2c2c(cccc2n3C)C1=O` [Compound 25, 2,2,5,10-tetramethyl-2,3,5,10-tetrahydro-[1,2]diazepino[3,4,5,6-def]carbazol-6(1H)-one], the EC50 was more than 1000 nM.
In turn, `CC1(C)CC2=NNC(=O)c3cc(F)cc4[nH]c(c2c34)C1=O` [Compound 26, 8-Fluoro-2,2-dimethyl-2,3-dihydro-[1,2]diazepino[3,4,5,6-def]carbazole-1,6(5H,10H)-dione] gave an EC50 of 4.5 nM.
Take `CN(C)CCn1c2c3c4c(cccc41)C(=O)NN=C3CCC2` [Compound 37, 10-(2-(dimethylamino)ethyl)-2,3,5,10-tetrahydro-[1,2]diazepino[3,4,5,6-def]carbazol-6(1H)-one]: the EC50 was 22 nM.
Still for that read-out and setting: the result for `CN1CC2=NNC(=O)c3cccc4[nH]c(c2c34)C1` [Compound 44, 2-Methyl-2,3,4,9-tetrahydro-2,4,9,10-tetraazacyclohepta[def]fluoren-8(1H)-one] reads 24 nM.
Compound `CC(C)N1CC2=NNC(=O)c3cccc4[nH]c(c2c34)C1` [Compound 45, 2-Isopropyl-2,3,4,9-tetrahydro-2,4,9,10-tetraazacyclohepta[def]fluoren-8(1H)-one] had an EC50 of 3.8 nM.
`O=C1NN=C2CN(C(=O)C3CC3)Cc3[nH]c4cccc1c4c32` [Compound 47, 2-(cyclopropanecarbonyl)-2,3,4,9-tetrahydro-2,4,9,10-tetraazacyclohepta[def]fluoren-8(1H)-one] displayed a 50% effective concentration (EC50) of 6.9 nM.
With `CN(C)CCn1c2c3c4c(cccc41)C(=O)NN=C3CN(C(=O)C1CC1)C2` [Compound 48, 2-(cyclopropanecarbonyl)-4-(2-(dimethylamino)ethyl)-2,3,4,9-tetrahydro-2,4,9,10-tetraazacyclohepta[def]fluoren-8(1H)-one], the midpoint of the response, the EC50, lay at 6 nM.
For the compound `CN(C)CCn1c2c3c4c(cc(F)cc41)C(=O)NN=C3CN(C(=O)C1CC1)C2` [Compound 50, 2-(Cyclopropanecarbonyl)-4-(2-(dimethylamino)ethyl)-6-fluoro-2,3,4,9-tetrahydro-2,4,9,10-tetraazacyclohepta[def]fluoren-8(1H)-one], it took 21 nM to reach a half-maximal effect (EC50).
`CC(C)(C)C(=O)N1CC2=NNC(=O)c3cccc4[nH]c(c2c34)C1` [Compound 51, 2-Pivaloyl-2,3,4,9-tetrahydro-2,4,9,10-tetraazacyclohepta[def]fluoren-8(1H)-one] displayed a 50% effective concentration (EC50) of 9.6 nM.
Consider `CC(C)(C)C(=O)N1CC2=NNC(=O)c3cc(F)cc4[nH]c(c2c34)C1` [Compound 52, 6-Fluoro-2-pivaloyl-2,3,4,9-tetrahydro-2,4,9,10-tetraazacyclohepta[def]fluoren-8(1H)-one], for which the response was half-maximal at 13.5 nM (EC50).
Same read-out and setting: the figure for `O=C1NN=C2CN(C3CCCCC3)Cc3[nH]c4cccc1c4c32` [Compound 53, 2-Cyclohexyl-2,3,4,9-tetrahydro-2,4,9, 10-tetraazacyclohepta[def]fluoren-8(1H)-one] is 20 nM.
With `CC(C)(C)CCN1CC2=NNC(=O)c3cccc4[nH]c(c2c34)C1` [Compound 54, 2-(3,3-dimethylbutyl)-2,3,4,9-tetrahydro-2,4,9,10-tetraazayclohepta[def]fluoren-8(1H)-one], the EC50 stood at 23 nM.
Still for that read-out and setting: the result for `CCCN1CC2=NNC(=O)c3cccc4[nH]c(c2c34)C1` [Compound 56, 2-Propyl-2,3,4,9-tetrahydro-2,4,9,10-tetraazacyclohepta[def]fluoren-8(1H)-one] reads 6.4 nM; that for `CCCCN1CC2=NNC(=O)c3cc(F)cc4[nH]c(c2c34)C1` [Compound 59, 2-Butyl-6-fluoro-2,3,4,9-tetrahydro-2,4,9,10-tetraazacyclohepta[def]fluoren-8(1H)-one], 2 nM.
Take `CN(C)CCN1CC2=NNC(=O)c3cccc4[nH]c(c2c34)C1` [Compound 60, 2-(2-(dimethylamino)ethyl)-2,3,4,9-tetrahydro-2,4,9,10-tetraazacyclohepta[def]fluoren-8(1H)-one]: the EC50 turned out to be 68.5 nM.
As for `CN(C)CCN1CC2=NNC(=O)c3cc(F)cc4[nH]c(c2c34)C1` [Compound 61, 2-(2-(Dimethylamino)ethyl)-6-fluoro-2,3,4,9-tetrahydro-2,4,9,10-tetraazacyclohepta[def]fluoren-8(1H)-one], the EC50 is 42 nM.
`CC(C)(C)OC(=O)N[C@@H](Cc1ccccc1)C(=O)N1CC2=NNC(=O)c3cccc4[nH]c(c2c34)C1` [Compound 63, (S)-tert-butyl (1-oxo-1-(8-oxo-8,9-dihydro-2,4,9,10-tetraazacyclohepta[def]fluoren-2(1H,3H,4H)-yl)-3-phenylpropan-2-yl)carbamate]: a half-maximal response (EC50) required 235 nM.
`CC1(C)CC2=NNC(=O)c3cccc4c3c2c(n4CCO)C1` [Compound 67, 10-(2-hydroxyethyl)-2,2-dimethyl-2,3,5,10-tetrahydro-[1,2]diazepino[3,4,5,6-def]carbazol-6(1H)-one] gave an EC50 of 247 nM.
Still for that read-out and setting: the figure for `C[C@]12CCCN1CC1=NNC(=O)c3cc(F)cc4[nH]c2c1c34` [Compound 69] is 0.6 nM.

By EC50 is commonly meant the concentration that produces a half-maximal response. Read a high EC50 as a need for much substance.
